Laboratory results: publication PMC6949950, “Screening Mold Colonies by Using Two Toxicity Assays Revealed Indoor Strains of Aspergillus calidoustus Producing Ophiobolins G and K” (Toxins, 2019)
Values after ≈ are worked out from the molar mass of the structure shown. Like-named read-outs stand apart in the source and are kept apart here.

Experiments:
[1] = system: porcine kidney PK-15 cells; assay: cells; format: cell-based; settings: for EC50: Sus scrofa, read-out: EC50 ICP 2 days
boar spermatozoa [2] = assay: cells; format: cell-based; settings: for EC50: Spermatozoa
boar spermatozoa [3] = assay: cells; format: cell-based; settings: for EC50: Spermatozoa, 24 h, read-out: EC50 SMID 1 day
M. circinelloides = system: M. circinelloides; design: method as in doi:10.1211/146080800128736312, PMID 21054501, PMID 22130129, PMID 23538442; settings: cited from earlier work
[4] = PK-15, 48 h, PK-15 cells, exposure 2 days, SD between three measurements < ± 35%
[5] = boar sperm, exposure 0.5–1 h, twofold dilutions, three measurements within one dilution step, read-out: EC50 BSMI 0.5–1 h
[6] = boar sperm, exposure 1–2 days, twofold dilutions, read-out: EC50 BSMI 1–2 days
[7] = boar sperm, exposure 1 day, SD between three measurements < ± 35%
[8] = PK-15 cells, exposure 2 days, SD between three measurements < ± 35%
[9] = boar sperm, exposure 0.5–1 h, twofold dilutions, three measurements within one dilution step
[10] = boar sperm, exposure 1–2 days, twofold dilutions

Compound: CC1(C)C=Cc2c(ccc3c2[N+]([O-])=C2C3=C[C@@]34NC(=O)[C@]5(CCCN5C3=O)C[C@H]4C2(C)C)O1 [Avrainvillamide]
- EC50 [1, 4]: 0.3 µg/mL (≈ 0.673 µM)
- EC50 (boar spermatozoa [2]; [5]): 0.6 µg/mL (≈ 1.35 µM)
- EC50 (boar spermatozoa [2]; [6]): 0.3 µg/mL (≈ 0.673 µM)
- EC50 (boar spermatozoa [3]; [7]): > 2 µg/mL

Compound: C[C@@H]1Cc2c(Cl)cc(C(=O)N[C@@H](Cc3ccccc3)C(=O)O)c(O)c2C(=O)O1 [Ochratoxin A]
- EC50 ([1]; 48 h, PK-15 cells, exposure 2 days, SD between three measurements < ± 35%): > 50 µg/mL
- EC50 (boar spermatozoa [2]; [5]): > 100 µg/mL
- EC50 (boar spermatozoa [2]; [6]): > 50 µg/mL
- EC50 (boar spermatozoa [3]; [7]): > 50 µg/mL

Compound: CC(C)=C[C@H]1C[C@H](C)[C@]2(CC[C@]3(C)C[C@H]4[C@H](C(=O)C[C@@]4(C)O)/C(C=O)=C\C[C@H]32)O1 [Ophiobolin A]
- treatment concentration at which apoptosis-like cell death process was observed (M. circinelloides): 1.6 µg/mL
- EC50 ICP 2 days [1, 8]: 0.2 µg/mL (≈ 0.499 µM)
- EC50 (boar spermatozoa [2]; [5]): 2.5 µg/mL (≈ 6.24 µM)
- EC50 (boar spermatozoa [2]; [6]): 0.25 µg/mL (≈ 0.624 µM)
- EC50 (boar spermatozoa [3]; [7]): 2 µg/mL (≈ 4.99 µM)

Compound: CC1(C)C=Cc2c(ccc3c2[N+]([O-])=C2C(C)(C)[C@@H]4CC56CCCN5C(=O)[C@]4(NC6=O)[C@H]4N5C(=O)[C@@]67CCCN6C(=O)[C@@]56[C@H](c5c(n(O)c8c9c(ccc58)OC(C)(C)C=C9)C(C)(C)[C@@H]6C7)[C@]234)O1 [Stephacidin B]
- EC50 ICP 2 days [1, 8]: 0.2 µg/mL (≈ 0.224 µM)
- EC50 BSMI 0.5–1 h (boar spermatozoa [2]; [9]): 0.5 µg/mL (≈ 0.561 µM)
- EC50 BSMI 1–2 days (boar spermatozoa [2]; [10]): 0.2 µg/mL (≈ 0.224 µM)
- EC50 SMID 1 day (boar spermatozoa [3]; [7]): >2 µg/mL

Compound: COc1cc2c(c3oc4cccc(O)c4c(=O)c13)[C@@H]1C=CO[C@@H]1O2 [Sterigmatocystin]
- EC50 ICP 2 days [1]: 0.25 µg/mL (≈ 0.771 µM)
- toxicity to proliferating PK-15 cells in the ICP assay [1]: highly toxic
- EC50 BSMI 0.5–1 h (boar spermatozoa [2]): >100 µg/mL
- EC50 BSMI 1–2 days (boar spermatozoa [2]): >20 µg/mL
- EC50 SMID 1 day (boar spermatozoa [3]): >20 µg/mL

Compound: Oc1cc(Cl)ccc1Oc1ccc(Cl)cc1Cl [triclosan]
- EC50 [1, 4]: 9.4 µg/mL (≈ 32.5 µM)
- EC50 (boar spermatozoa [3]; [7]): 2 µg/mL (≈ 6.91 µM)

Compound: Alamethicin
- EC50 ICP 2 days [1, 8]: 8 µg/mL
- EC50 BSMI 0.5–1 h (boar spermatozoa [2]; [9]): 5 µg/mL
- EC50 BSMI 1–2 days (boar spermatozoa [2]; [10]): 0.2 µg/mL
- EC50 SMID 1 day (boar spermatozoa [3]; [7]): 0.2 µg/mL
